In the experiment the target is T1, human TGR5 (Homo sapiens, UniProt Q8TDU6).
T1 construct: expressed in transfected cells; host or cells: HEK-293 cells, stably transfected (pcDNA 3.1, Fugene6, geneticin selection)
T1 sequence (Q8TDU6 1-330): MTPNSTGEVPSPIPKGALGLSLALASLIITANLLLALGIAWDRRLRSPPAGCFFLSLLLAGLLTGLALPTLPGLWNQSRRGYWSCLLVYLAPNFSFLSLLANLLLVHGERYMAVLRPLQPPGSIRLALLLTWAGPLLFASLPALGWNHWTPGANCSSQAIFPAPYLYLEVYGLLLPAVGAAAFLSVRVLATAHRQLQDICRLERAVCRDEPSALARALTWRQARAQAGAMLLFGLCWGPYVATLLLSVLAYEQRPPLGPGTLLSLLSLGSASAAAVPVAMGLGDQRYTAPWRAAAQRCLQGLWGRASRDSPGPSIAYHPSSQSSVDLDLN
Briefly: cAMP production assay in HEK293-TGR5 cells. Conditions: HEK293 cells stably expressing human TGR5; 30 minutes stimulation; LANCE cAMP TR-FRET; read-out: cAMP Production in 293-TGR5 Cells EC50. The experiment is classed as cell-based. Here is the method:
HEK293 cells stably expressing TGR5 (HEK293-TGR5) were established by stably transfecting HEK-293 cells with an expression vector (pcDNA 3.1, Invetrogen) inserted with human TGR5 cDNA using Fugene6 (Roche, Indianapolis, Ind.) according to conventional methods. Cells were grown in DMEM (invitrogen, Carlsbad, Calif.) supplemented with 10% FBS, 1% penicillin/streptomycin under geneticin selection. The presence of TGR5 transcripts in these cells was confirmed using branched DNA (bDNA, Genospectra, Inc., Fremont Calif.) following the manufacturer's protocol and using specific probes for human TGR5. cAMP production assay was performed in high throughput 1536 well format using LANCE cAMP detection kit (Perkin Elmer Inc., Boston, Mass.) according to the manufacturer's protocol. Briefly, HEK293-TGR5 cells were harvested using non-enzymatic cell dissociation buffer (Invitrogen, Carlsbad, Calif.) and suspended in DMEM supplemented with 0.1% FBS at a density of 800,000 cells/ml. Alexa antibody was added to the cell suspension, and 4 ul of the mixture was dispensed in white opaque tissue culture treated Greiner 1536 well plates (USA Scientific, Inc., Ocala, Fla.). After an overnight incubation at 37C in an atmosphere of 10% CO2 and 95% humidity, 1 ul of 5 mM IBMX (Sigma, St. Louis, Mo.) solution in DMEM was dispensed for a final concentration of 1 mM. Cells were then stimulated with test compounds for 30 minutes, after which time 5 ul of detection reagent was added and incubated for 1-7 hrs at room temperature. TR-FRET signal was detected using the Viewlux (Perkin Elmer Inc., Boston Mass.). EC50 values were determined using Graph Pad Prizm analysis (GraphPad Software, Inc).
(Cyclic AMP is a second messenger, typically raised through Gs and lowered through Gi signalling.)

Broadly, the EC50 is the concentration that produces a half-maximal response.

In the case of `FC(F)(F)Oc1ccc2cc(CNCc3ccc(C(F)(F)F)cc3)c(-c3cccnc3)nc2c1` [Example 15, 1-(2-(Pyridin-3-yl)-7-(trifluoromethoxy)quinolin-3-yl)-N-(4-(trifluoromethyl)benzyl)-methanamine], the EC50 is below 10 µM.

With `FC(F)(F)Oc1ccc2cc(CNCCc3ccc(Br)cc3)c(-c3cccnc3)nc2c1` [Example 16, 2-(4-Bromophenyl)-N-((2-(pyridin-3-yl)-7-(trifluoromethoxy)quinolin-3-yl)methyl)ethanamine], the EC50 was above 10 µM. Take `COc1ccc2cc(CNC(=O)c3ccc(C(F)(F)F)cc3)c(-c3ccsc3)nc2c1` [Example 17, N-((7-methoxy-2-(thiophen-3-yl)quinolin-3-yl)methyl)-4-(trifluoromethyl)benzamide]: the EC50 was above 10 µM. With `COc1ccc2cc(C(=O)NCc3ccc(C(F)(F)F)cc3)c(-c3ccsc3)nc2c1` [Example 18, 7-methoxy-2-(thiophen-3-yl)-N-(4-(trifluoromethyl)benzyl)quinoline-3-carboxamide], the EC50 is above 10 µM.

With `COc1ccc2cc(C(=O)NCCc3ccc(Cl)cc3)c(-c3ccsc3)nc2c1` [Example 19, N-(4-Chlorophenethyl)-7-methoxy-2-(thiophen-3-yl)quinoline-3-carboxamide], the concentration giving a half-maximal response (EC50) was below 10 µM. Regarding `COc1ccc2cc(CNCc3ccc(C(F)(F)F)cc3)c(-c3cnn(C)c3)nc2c1` [Example 20, 1-(7-Methoxy-2-(1-methyl-1H-pyrazol-4-yl)quinolin-3-yl)-N-(4-(trifluoromethyl)benzyl)methanamine], the EC50 is below 10 µM. Turning to `COc1ccc2cc(CNCCc3ccc(Cl)cc3)c(-c3cnn(C)c3)nc2c1` [Example 21, 2-(4-Chlorophenyl)-N-((7-methoxy-2-(1-methyl-1H-pyrazol-4-yl)quinolin-3-yl)methyl)ethanamine], the EC50 was below 10 µM. As for `COc1ccc2cc(CNCCc3ccc(Cl)cc3)c(-c3ccncc3)nc2c1` [Example 22, 2-(4-Chlorophenyl)-N-((7-methoxy-2-(pyridin-4-yl)quinolin-3-yl)methyl)ethanamine], the figure is below 10 µM; as for `COc1ccc2cc(CNCc3ccc(C(F)(F)F)cc3)c(-c3ccncc3)nc2c1` [Example 23, 1-(7-Methoxy-2-(pyridin-4-yl)quinolin-3-yl)-N-(4-(trifluoromethyl)benzyl)methanamine], below 10 µM; as for `COc1ccc2cc(CNCc3ccc(C(F)(F)F)cc3)c(-c3ccccc3F)nc2c1` [Example 24, 1-(2-(2-Fluorophenyl)-7-methoxyquinolin-3-yl)-N-(4-(trifluoromethyl)benzyl)methanamine], above 10 µM. As for `COc1ccc2cc(CNCCc3ccc(Cl)cc3)c(-c3ccccc3F)nc2c1` [Example 25, 2-(4-Chlorophenyl)-N-((2-(2-fluorophenyl)-7-methoxyquinolin-3-yl)methyl)ethanamine], the figure is below 10 µM; as for `COc1ccc2nc(-c3ccsc3)c(CNCc3ccc(C(F)(F)F)cc3)cc2c1` [Example 26, 1-(6-Methoxy-2-(thiophen-3-yl)quinolin-3-yl)-N-(4-(trifluoromethyl)benzyl)methanamine], above 10 µM. Consider `COc1ccc2nc(-c3ccsc3)c(CNCCc3ccc(Cl)cc3)cc2c1` [Example 27, 2-(4-Chlorophenyl)-N-((6-methoxy-2-(thiophen-3-yl)quinolin-3-yl)methyl)ethanamine], for which the half-maximal effective concentration (EC50) is above 10 µM. As for `FC(F)(F)c1ccc(CNCc2cc3ccccc3nc2-c2ccsc2)cc1` [Example 28, 1-(2-(Thiophen-3-yl)quinolin-3-yl)-N-(4-(trifluoromethyl)benzyl)-methanamine], the figure is below 10 µM.

Take `Clc1ccc(CCNCc2cc3ccccc3nc2-c2ccsc2)cc1` [Example 29, 2-(4-Chlorophenyl)-N-((2-(thiophen-3-yl)quinolin-3-yl)methyl)-ethanamine]: the EC50 is above 10 µM. As for `COc1ccc2cc(CNCc3ccc(C(F)(F)F)cc3)c(-c3nccs3)nc2c1` [Example 30, 1-(7-methoxy-2-(thiazol-2-yl)quinolin-3-yl)-N-(4-(trifluoromethyl)benzyl)methanamine], the figure is above 10 µM.

For the compound `COc1ccc2cc(CNCCc3ccc(Cl)cc3)c(-c3nccs3)nc2c1` [Example 31, 2-(4-Chlorophenyl)-N-((7-methoxy-2-(thiazol-2-yl)quinolin-3-yl)methyl)ethanamine], the EC50 was above 10 µM.

Take `COc1ccc2cc(CN(CCc3ccc(Cl)cc3)C(C)=O)c(-c3ccsc3)nc2c1` [Example 32, N-(4-Chlorophenethyl)-N-((7-methoxy-2-(thiophen-3-yl)quinolin-3-yl)methyl)acetamide]: the EC50 is above 10 µM.

`COc1ccc2cc(CN(CCc3ccc(Cl)cc3)S(C)(=O)=O)c(-c3ccsc3)nc2c1` [Example 33, N-(4-Chlorophenethyl)-N-((7-methoxy-2-(thiophen-3-yl)quinolin-3-yl)methyl)methanesulfonamide]: the EC50 was above 10 µM. In the case of `COc1ccc2cc(CN(C)CCc3ccc(Cl)cc3)c(-c3ccsc3)nc2c1` [Example 35, 2-(4-Chlorophenyl)-N-((7-methoxy-2-(thiophen-3-yl)quinolin-3-yl)methyl)-N-methylethanamine] it was above 10 µM.

Consider `COc1ccc2cc(CNCc3ccc(C(F)(F)F)cc3)c(-c3ncco3)nc2c1` [Example 37, 1-(7-Methoxy-2-(oxazol-2-yl)quinolin-3-yl)-N-(4-(trifluoromethyl)benzyl)methanamine], for which the EC50 was above 10 µM. Regarding `COc1ccc2cc(CNCCc3ccc(Cl)cc3)c(-c3ncco3)nc2c1` [Example 38, 2-(4-Chlorophenyl)-N-((7-methoxy-2-(oxazol-2-yl)quinolin-3-yl)methyl)ethanamine], the half-maximal effective concentration (EC50) was below 10 µM. With `CSc1ccc2cc(CNCCc3ccc(Br)cc3)c(-c3ccsc3)nc2c1` [Example 39, 2-(4-Bromophenyl)-N-((7-(methylthio)-2-(thiophen-3-yl)quinolin-3-yl)methyl)ethanamine], the half-maximal effective concentration (EC50) was below 10 µM.

For `CSc1ccc2cc(CNCc3ccc(C(F)(F)F)cc3)c(-c3ccsc3)nc2c1` [Example 40, 1-(7-(Methylthio)-2-(thiophen-3-yl)quinolin-3-yl)-N-(4-(trifluoromethyl)benzyl)methanamine], the EC50 was above 10 µM.

As for `FC(F)(F)c1ccc(CNCc2cc3ccc(Cl)cc3nc2-c2ccsc2)cc1` [Example 41, 1-(7-Chloro-2-(thiophen-3-yl)quinolin-3-yl)-N-(4-(trifluoromethyl)benzyl)methanamine], the EC50 is above 10 µM.

In the case of `Cc1ccc2cc(CNCc3ccc(C(F)(F)F)cc3)c(-c3ccsc3)nc2c1` [Example 44, 1-(7-Methyl-2-(thiophen-3-yl)quinolin-3-yl)-N-(4-(trifluoromethyl)benzyl)methanamine], the EC50 was below 10 µM. Consider `CCOc1ccc2cc(CNCCc3ccc(Br)cc3)c(-c3cccnc3)nc2c1` [Example 45, 2-(4-Bromophenyl)-N-((7-ethoxy-2-(pyridin-3-yl)quinolin-3-yl)methyl)ethanamine], for which the concentration for a half-maximal effect (EC50) is above 10 µM. Consider `CCOc1ccc2cc(CNCc3ccc(C(F)(F)F)cc3)c(-c3cccnc3)nc2c1` [Example 46, 1-(7-Ethoxy-2-(pyridin-3-yl)quinolin-3-yl)-N-(4-(trifluoromethyl)benzyl)methanamine], for which the EC50 was above 10 µM.

(Values after patent US20080221161A1, “HETEROCYCLIC MODULATORS OF TGR5 FOR TREATMENT OF DISEASE” (KALYPSYS, INC., priority 2007, published 2008).)
